Data from the supplement of paper PMC10307832.

Experiments:
Test in all cases: relative viability (nuclei count vs DMSO), 5 days (fraction); higher = more cells survive
Kobe2602 + Phenformin = compound: C1=CC(=CC=C1NC(=S)NNC2=C(C=C(C=C2[N+](=O)[O-])C(F)(F)F)[N+](=O)[O-])F [Kobe2602] + N=C(N)NC(=N)NCCc1ccccc1 [Phenformin] (partner 250 µM)
How it was run: (§1)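 Nuclei were stained with Hoechst during a one-step fixation (final 0.05% Triton X-100, 1% formaldehyde, 1 ug/ml Hoechst) carried out 5 days after dosing, then counted on 4× images. The cells, lung cancer lines in 1536-well plates, had been dosed by pin tool the day after seeding with one drug alone or a fixed anchor-drug dose plus five library-drug doses (not always all listed) in √10 steps. Relative viability is the nuclei count in treated wells divided by that in vehicle wells, and each value is the median of duplicate plates.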

Kobe2602 + Palbociclib = compound: C1=CC(=CC=C1NC(=S)NNC2=C(C=C(C=C2[N+](=O)[O-])C(F)(F)F)[N+](=O)[O-])F [Kobe2602] + CC(=O)c1c(C)c2cnc(Nc3ccc(N4CCNCC4)cn3)nc2n(C2CCCC2)c1=O [Palbociclib] (partner 0.5 µM)
How it was run: as §1

Zosuquidar + Bortezomib = compound: O[C@@H](COc1cccc2ncccc12)CN1CCN([C@@H]2c3ccccc3[C@@H]3[C@H](c4ccccc42)C3(F)F)CC1 [Zosuquidar] + CC(C)C[C@H](NC(=O)[C@H](Cc1ccccc1)NC(=O)c1cnccn1)B(O)O [Bortezomib] (partner 0.002 µM)
How it was run: as §1

[1] = compound: COc1cc2nccc(Oc3ccc(NC(=O)C4(C(=O)Nc5ccc(F)cc5)CC4)cc3)c2cc1OC [Cabozantinib] + C[C@@H](Oc1cc(-c2cnn(C3CCNCC3)c2)cnc1N)c1c(Cl)ccc(F)c1Cl [Crizotinib] (partner 1 µM)
How it was run: as §1

| Cell Line | relative viability (Kobe2602 + Phenformin; first compound 0.2 µM) | relative viability (Kobe2602 + Phenformin; first compound 0.6325 µM) | relative viability (Kobe2602 + Phenformin; first compound 2 µM) | relative viability (Kobe2602 + Phenformin; first compound 6.325 µM) | relative viability (Kobe2602 + Phenformin; first compound 20 µM) | relative viability (Kobe2602 + Palbociclib; first compound 0.2 µM) | relative viability (Kobe2602 + Palbociclib; first compound 0.6325 µM) | relative viability (Kobe2602 + Palbociclib; first compound 2 µM) | relative viability (Kobe2602 + Palbociclib; first compound 6.325 µM) | relative viability (Kobe2602 + Palbociclib; first compound 20 µM) | relative viability (Zosuquidar + Bortezomib; first compound 0.01 µM) | relative viability (Zosuquidar + Bortezomib; first compound 0.03162 µM) | relative viability (Zosuquidar + Bortezomib; first compound 0.1 µM) | relative viability (Zosuquidar + Bortezomib; first compound 0.3162 µM) | relative viability (Zosuquidar + Bortezomib; first compound 1 µM) | relative viability ([1]; first compound 0.02 µM) | relative viability ([1]; first compound 0.06325 µM) | relative viability ([1]; first compound 0.2 µM) | relative viability ([1]; first compound 0.6325 µM) | relative viability ([1]; first compound 2 µM) |
| --- | --- | --- | --- | --- | --- | --- | --- | --- | --- | --- | --- | --- | --- | --- | --- | --- | --- | --- | --- | --- |
| HCC-44 | 0.207 | 0.21 | 0.249 | 0.239 | 0.322 | 0.988 | 0.932 | 0.975 | 0.924 | 0.887 | 0.872 | 0.949 | 0.885 | 0.952 | 0.864 | 0.855 | 0.85 | 0.841 | 0.834 | 0.85 |
| LU99A | 0.814 | 0.916 | 0.79 | 0.906 | 0.931 | 0.424 | 0.488 | 0.411 | 0.473 | 0.451 | 1.09 | 1.14 | 1.22 | 1.34 | 1.37 | 0.585 | 0.607 | 0.592 | 0.567 | 0.527 |
| NCI-H727 | 0.594 | 0.559 | 0.535 | 0.52 | 0.633 | 0.665 | 0.703 | 0.635 | – | 0.704 | 0.876 | 0.938 | 0.708 | 0.787 | 0.828 | 0.934 | 0.866 | 0.786 | 1.03 | 0.896 |
| NCI-H1975 | 0.433 | 0.442 | 0.427 | 0.379 | 0.388 | 0.668 | 0.599 | 0.613 | 0.544 | 0.631 | 0.362 | 0.34 | 0.425 | 0.437 | 0.341 | 1.09 | 1.05 | 0.948 | 1.09 | 0.83 |
| NCI-H1355 | 0.479 | 0.479 | 0.476 | 0.415 | 0.433 | 0.341 | 0.367 | 0.385 | 0.398 | 0.406 | 1.15 | 1.26 | 1.1 | 1.33 | 1.24 | 1.11 | 1.16 | 1.09 | 1.05 | 1.15 |
| NCI-H1755 | 0.615 | 0.608 | 0.601 | 0.662 | 0.568 | 0.457 | 0.467 | 0.484 | 0.459 | 0.465 | 0.923 | 0.873 | 0.901 | 1.12 | 0.934 | 0.972 | 0.964 | 0.942 | 0.797 | 0.781 |
| NCI-H2009 | 0.454 | 0.503 | 0.504 | 0.421 | 0.305 | 0.241 | 0.258 | 0.294 | 0.24 | 0.254 | 0.98 | 0.917 | 0.737 | 1.16 | 0.966 | 1.11 | 1.09 | 1.15 | 1.09 | 1.04 |
| HCC-78 | 0.693 | 0.699 | 0.736 | 0.727 | 0.9 | 0.522 | 0.446 | 0.479 | 0.535 | 0.52 | 0.582 | 0.392 | – | 0.625 | 0.428 | 0.326 | 0.356 | 0.288 | 0.351 | 0.318 |
| NCI-H322M | 0.798 | 0.857 | 0.808 | 0.826 | 0.771 | 0.477 | 0.535 | 0.485 | 0.491 | 0.559 | 1.27 | 1.27 | 0.827 | 1.17 | 1.12 | 1.02 | 1.04 | – | 0.945 | 0.861 |
| HOP-62 | 0.644 | 0.693 | 0.66 | 0.698 | 0.603 | 0.442 | 0.499 | 0.419 | 0.456 | 0.485 | 0.6 | 1.01 | 0.616 | 0.42 | 0.906 | 0.821 | 1.06 | 1.14 | 0.89 | 0.902 |
| NCI-H838 | 0.549 | 0.71 | 0.574 | 0.577 | 0.554 | 0.196 | 0.215 | 0.199 | 0.246 | 0.199 | 0.824 | 0.605 | 0.749 | 0.813 | 0.884 | 1.03 | 0.925 | 0.834 | 0.787 | 0.799 |
| BEN | 0.264 | 0.295 | 0.302 | 0.246 | 0.25 | 0.502 | 0.497 | 0.481 | 0.483 | 0.443 | 0.928 | 0.734 | 0.651 | 0.882 | 0.773 | 1.12 | 1 | 0.868 | 0.895 | 0.767 |
| NCI-H23 | 0.75 | 0.782 | 0.762 | 0.723 | 0.814 | 0.559 | 0.568 | 0.446 | 0.522 | 0.544 | 0.956 | 1.24 | 1.15 | 1.3 | 1.33 | – | 0.634 | 0.503 | 0.473 | 0.413 |
| ChaGo-K-1 | 0.564 | 0.574 | 0.523 | 0.463 | 0.463 | 0.977 | 0.926 | 0.83 | 0.894 | 0.83 | 0.854 | 0.966 | 1.08 | 0.967 | 0.787 | 1.24 | 1.3 | 1.18 | 1.13 | 1.09 |
| NCI-H1792 | 0.253 | 0.344 | 0.249 | 0.316 | 0.31 | 0.634 | 0.707 | 0.653 | 0.671 | 0.682 | 0.836 | 0.495 | 0.906 | 0.907 | 0.96 | 0.841 | 1.1 | 0.999 | 0.962 | 1.03 |
